Experiments:
[1] = test system: Akt phosphorylation at Ser473 in HCT116 cells; assay: Cell-based phospho-AKT Ser473 assay (HCT116 Cell), MSD sandwich immunoassay; conditions: Homo sapiens, HCT-116, 2 h, read-out: HCT116 Cell IC50, HCT116 cells, 2 h compound, IGF-1 stimulation, pAkt Ser473;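 note: IGF-1 added at 100 ng/mL for 15 min after compound treatment, electrochemiluminescent readout of phospho-Akt, DMSO-only wells define maximum signal, IC50 reflects inhibition of phosphorylation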
Description: This assay determines the ability of a compound to inhibit the phosphorylation of Serine 472 in Akt using a MSD based sandwich immunoassay (Meso Scale Detection, Meso Scale Discovery (MSD), Gaithersburg, Md.). HCT116 human colon carcinoma cell lines can be grown in McCoy's 5A growth medium (GIBCO, Carlsbad, Calif.) containing 10% FBS (GIBCO, Carlsbad, Calif.) and X1 Penicillin-streptomycin-glutamine (GIBCO, Carlsbad, Calif.). Prior to the assay, cells can be detached from the culture flask with trypsin, and re-suspended in complete media to give a final concentration of 1.6×10^5 cells per mL. Aliquots (100 μl) of the HCT116 cell suspension can be seeded into each well of a 96 well tissue culture plate to give a final density of 16,000 cells per well. Cells can then be incubated overnight at 37° C.
The following day the cells can be treated with serially diluted test compounds and incubated for 2 hours at 37° C. The culture media on the HCT 116 cells can be replaced with 189 μL McCoys media, supplemented with 0.1% BSA (ICN Biomedicals, Inc., Costa Mesa, Calif.). […] Aliquots (1 μL) of serially-diluted compounds can be transferred to 96 well tissue culture plates containing the HCT 116 cells. […] As a maximum response control, wells can contain 0.5% DMSO in place of compound. The plates can be mixed at 700 rpm for 2 min to ensure even distribution of the test compound and incubated for 2 hours at 37° C. Cells can then be stimulated with insulin-like growth factor 1 (Sigma, St Louis, Mo.) at final concentration of 100 ng/mL for 15 minutes at 37° C. The media can then be removed and the cells treated with 80 μL cell-lysis buffer (MSD) containing a cocktail of protease and phosphatase inhibitors for one hour at 4° C.
25 μL Cell lysate can then be transferred to pre-blocked MSD assay plates pre-coated with a capture antibody specific for Akt, and the plates can be incubated for 2 hours at room temperature. The cell lysates can then be removed and plates can then be washed four times with 200 μl per well of Tris wash buffer (500 mM Tris, PH 7.5, 1.5 M NaCl, 0.2% Tween-20). Subsequently cells can be incubated for 1 hour at room temperature with a 25 μL solution containing the detection antibody, anti-phospho Akt (Ser 473) labeled with an electrochemiluminescent compound (Meso Scale Discovery SULPHO-TAG™ label, MSD, Gaithersburg, Md.). The detection antibody can be removed and plates can then be washed four times with 200 μL per well of Tris wash buffer. An aliquot of 150 μL of diluted MSD read buffer can then be applied to each well, and the electrochemiluminescent signal can be measured using a MSD SECTOR™ plate reader (Meso Scale Discovery, Gaithersburg, Md.). This instrument measures the intensity of emitted light to determine a quantitative measure of phosphorylated Akt in each well. The dose-response data obtained with each compound can be analyzed and the IC50 inhibition of Akt phosphorylation at Ser473 can be calculated.

[2] = test system: phosphorylation of Akt at Serine 473 in U87 MG cells; assay: pAkt AlphaScreen (U87 Cell); format: cell-based; conditions: Homo sapiens, U-87 MG, 2 h, 2 h compound, pAkt Ser473 AlphaScreen
Protocol: The pAkt AlphaScreen® assay (PerkinElmer, Waltham, Mass.) determines whether there is phosphorylation of Akt at Serine 473 by recruitment of a phosphospecific antibody. This assay was performed using U87 MG cells. The U87 growth media consists of MEM (Gibco, Carlsbad, Calif.) supplemented with 10% FBS (Gibco), 1× Non-Essential Amino Acids (Gibco) and 1× Penicillin/Streptomycin/Glutamine (Gibco). The cells were maintained weekly using 0.05% Trypsin (Gibco) and replated in 150 mm TC-Treated Culture Dishes (Corning, Corning, N.Y.).
The first day of the assay, the adherent cells were trypsinized, media was added to the loose cells and cells were mixed to a homogenous mixture. 0.5 ml of the homogenous mixture was counted on the Beckman Coulter® Vi-CELL™ XR (Fullerton, Calif.). 50 frames of cells were counted and the number of viable cells was determined. The cells were then diluted to 0.25 million cells per ml, and centrifuged at 200 rcf for 5 minutes. The media was removed and the cells were reconstituted in fresh media for plating. The cells were plated at 20 μl per well on the PerkinElmer® Flexprop PLUS in Low Volume 384 Well White Tissue Culture Plates (Corning) with a final cell density of 5K cells per well. The plates were incubated overnight at 37° Celsius, 5% CO2.
On the second day, the compound plates were prepared, the cells were treated with compound and the pAkt reaction mix was added to the cell lysate. 384 well compound plates were prepared containing 1 μl of compound per well starting at 5 mM and diluted 1:2 across the row, resulting in a 22 well serial dilution. 39 μl of growth media was added to the compound plate in rows 1-22 using the PerkinElmer® FlexDrop PLUS resulting in a DMSO concentration of 2.5%. The cell plates and diluted compound plates were put onto the VELOCITY11™ VPREP™ 384 ST where the compound plate was mixed and 5 μl of serially diluted compound or controls was added to the cell plate. The final concentration of the compounds was 25 μM serially diluted to 11.9 pM in 0.5% DMSO. The cell plates were then incubated with compound for two hours at 37° Celsius, 5% CO2. After two hours, the media in the cell plates was aspirated using the BioTek® ELx405HT plate washer (Winooski, Vt.) removing the majority of media and compound without disturbing the adherent U87 cells. The following assay reagents are components of the SureFire® Akt (Ser 473) Phosphorylation 50K Point Kit (TGR BioSciences, Adelaide, Australia) and an IgG Detection Kit (PerkinElmer, Waltham, Mass.). 5 μl of 1× Lysis Buffer was added to each well using the PerkinElmer® FlexDrop PLUS. The plates were then incubated at room temperature on a shaker for ten minutes. The AlphaScreen® reaction was prepared under low light conditions (subdued or green light) including p-Akt (Ser 473) Reaction Buffer, Dilution Buffer, Activation Buffer, Acceptor Beads and Donor Beads at a ratio of 40:20:10:1:1 respectively. The AlphaScreen® reaction was added to the cell lysate at 6 μl per well using the PerkinElmer® FlexDrop PLUS. The plates were placed in a humid environment to reduce edge effects and incubated overnight at room temperature with restricted air flow in the dark.
On the final day of the experiment, the plates were read on the PerkinElmer® EnVision™ 2103 Multilable Reader using the standard AlphaScreen® readout. The POC is calculated and the data is analyzed to report the IC50 IP for pAkt at Serine 473.

PI3Kα = molecular target: T1, PI3Kα (Homo sapiens, UniProt P42336); assay: In vitro PI3 kinase enzyme assay (PI3K ATPLoss); format: biochemical; conditions: recombinant p110α/p85, residual ATP by bioluminescence
T1 construct: Full length p110 subunits of PI3K α, β and δ, N-terminally labeled with polyHis tag; polyHis (N); made in house; host or cells: Sf9 insect cells (baculovirus)
T1 sequence (P42336 whole entry, species assumed): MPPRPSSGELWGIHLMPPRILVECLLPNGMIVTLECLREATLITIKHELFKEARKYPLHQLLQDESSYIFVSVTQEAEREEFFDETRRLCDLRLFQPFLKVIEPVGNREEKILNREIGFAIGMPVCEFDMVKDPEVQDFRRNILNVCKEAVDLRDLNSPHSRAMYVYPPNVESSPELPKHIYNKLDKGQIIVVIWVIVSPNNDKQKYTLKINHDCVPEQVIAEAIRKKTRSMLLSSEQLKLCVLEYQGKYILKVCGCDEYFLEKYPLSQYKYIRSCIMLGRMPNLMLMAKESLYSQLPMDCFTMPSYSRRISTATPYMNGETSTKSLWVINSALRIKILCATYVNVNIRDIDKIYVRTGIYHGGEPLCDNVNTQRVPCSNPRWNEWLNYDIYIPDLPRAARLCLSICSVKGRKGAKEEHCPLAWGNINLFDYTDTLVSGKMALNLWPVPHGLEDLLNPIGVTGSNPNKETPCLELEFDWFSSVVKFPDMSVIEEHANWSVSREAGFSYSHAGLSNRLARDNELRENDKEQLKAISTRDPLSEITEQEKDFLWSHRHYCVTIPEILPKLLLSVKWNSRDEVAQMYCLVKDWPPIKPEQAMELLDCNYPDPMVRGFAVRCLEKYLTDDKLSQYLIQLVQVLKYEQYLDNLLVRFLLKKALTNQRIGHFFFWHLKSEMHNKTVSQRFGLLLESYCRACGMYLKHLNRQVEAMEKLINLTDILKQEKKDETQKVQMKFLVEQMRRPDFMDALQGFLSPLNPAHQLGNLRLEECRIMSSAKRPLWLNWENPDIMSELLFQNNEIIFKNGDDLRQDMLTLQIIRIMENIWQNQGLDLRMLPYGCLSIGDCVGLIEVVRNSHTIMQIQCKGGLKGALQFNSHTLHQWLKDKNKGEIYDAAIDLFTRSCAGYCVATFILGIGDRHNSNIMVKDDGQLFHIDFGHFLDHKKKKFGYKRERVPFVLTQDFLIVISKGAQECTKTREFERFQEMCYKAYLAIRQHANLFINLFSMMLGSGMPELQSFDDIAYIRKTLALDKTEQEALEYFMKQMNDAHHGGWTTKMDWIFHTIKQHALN
T1 sequence (P27986 whole entry partner, species assumed): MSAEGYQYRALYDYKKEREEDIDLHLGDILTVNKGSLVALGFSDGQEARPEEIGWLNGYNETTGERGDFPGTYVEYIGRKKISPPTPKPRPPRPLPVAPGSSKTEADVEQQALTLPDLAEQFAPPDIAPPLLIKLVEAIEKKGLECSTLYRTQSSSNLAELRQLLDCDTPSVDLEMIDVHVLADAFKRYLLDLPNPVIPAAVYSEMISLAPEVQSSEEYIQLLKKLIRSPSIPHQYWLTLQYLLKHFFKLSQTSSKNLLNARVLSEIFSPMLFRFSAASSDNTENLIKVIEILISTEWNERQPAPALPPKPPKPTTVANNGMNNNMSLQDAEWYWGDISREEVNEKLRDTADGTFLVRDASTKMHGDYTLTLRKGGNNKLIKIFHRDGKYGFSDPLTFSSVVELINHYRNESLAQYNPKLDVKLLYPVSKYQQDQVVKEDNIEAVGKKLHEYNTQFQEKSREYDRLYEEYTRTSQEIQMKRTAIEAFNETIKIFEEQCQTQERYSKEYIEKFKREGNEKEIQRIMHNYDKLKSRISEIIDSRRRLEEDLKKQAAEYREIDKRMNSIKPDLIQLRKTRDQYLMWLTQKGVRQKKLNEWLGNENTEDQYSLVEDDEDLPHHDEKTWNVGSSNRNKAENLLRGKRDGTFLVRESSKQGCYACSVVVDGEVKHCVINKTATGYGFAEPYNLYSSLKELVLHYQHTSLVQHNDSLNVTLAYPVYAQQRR
Protocol: Full length p110 subunits of PI3K α, β and δ, N-terminally labeled with polyHis tag, can be co-expressed with p85 with Baculo virus expression vectors in sf9 insect cells. P110/p85 heterodimers can be purified by sequential Ni-NTA, Q-HP, Superdex-100 chromatography. Purified α, β and δ isozymes can be stored at −20° C. in 20 mM Tris, pH 8, 0.2M NaCl, 50% glycerol, 5 mM DTT, 2 mM Na cholate. Truncated PI3Kγ, residues 114-1102, N-terminally labeled with polyHis tag, can be expressed with Baculo virus in Hi5 insect cells. The γ isozyme can be purified by sequential Ni-NTA, Superdex-200, Q-HP chromatography. The γ isozyme can be stored frozen at −80° C. in NaH2PO4, pH 8, 0.2M NaCl, 1% ethylene glycol, 2 mM β-mercaptoethanol.
PI3K enzyme assays (alpha, beta, delta and gamma) can be performed in 25 μL with the above final concentrations of components in white polyproplyene plates. Phosphatidyl inositol phosphoacceptor, PtdIns(4,5)P2 (e.g. P4508) can be obtained from Echelon Biosciences, Salt Lake City, Utah. The ATPase activity of the alpha and gamma isozymes may not be greatly stimulated by PtdIns(4,5)P2 under these conditions, it can be omitted from the assay of these isozymes. Test compounds can be dissolved in DMSO and diluted with three-fold serial dilutions. The compound in DMSO (1 μL) may be added per test well, and the inhibition relative to reactions containing no compound, with and without enzyme can be determined. After assay incubation at RT, the reaction can be stopped and residual ATP can be determined by addition of an equal volume of a commercial ATP bioluminescence kit (Perkin Elmer EasyLite, Perkin Elmer, Waltham, Mass.) according to the manufacturer's instructions, and detected using an Analyst GT luminometer.

Structure (SMILES) | IC50 [1] [nM] | IC50 [2] [nM] | IC50 (PI3Kα) [nM]
CC(=O)Nc1cn2nc(-c3cnc(Cl)c(NS(=O)(=O)N4CCOCC4)c3)ccc2n1 [Example 41, N-(6-(6-Chloro-5-(morpholine-4-sulfonamido)pyridin-3-yl)imidazo[1,2-b]pyridazin-2-yl)acetamide] | 75 | 47 | 6
CC(=O)Nc1cn2nc(-c3cnc(Cl)c(NS(C)(=O)=O)c3)ccc2n1 [Example 19, N-(6-(6-Chloro-5-(methylsulfonamido)pyridin-3-yl)imidazo[1,2-b]pyridazin-2-yl)acetamide] | 218 | 133 | 5.7
CNC(C)c1ccc(S(=O)(=O)Nc2cc(-c3ccc4nc(NC(C)=O)cn4n3)cnc2Cl)cc1 (racemic) [Example 37, N-(6-(6-chloro-5-(4-(1-(methylamino)ethyl)phenylsulfonamido)pyridin-3-yl)imidazo[1,2-b]pyridazin-2-yl)acetamide] | 244 | – | 7
CC(=O)Nc1nc2cc(-c3cnc(Cl)c(NS(=O)(=O)c4ccc(F)cc4)c3)ccc2[nH]1 [Example 30, N-(5-(6-Chloro-5-(4-fluorophenylsulfonamido)pyridin-3-yl)-1H-benzo[d]imidazol-2-yl)acetamide] | 1100 | – | 12
CC(=O)Nc1cn2nc(-c3cccc(NS(=O)(=O)c4cccc5ccccc45)c3)ccc2n1 [Example 7, N-(6-(3-(Naphthalene-1-sulfonamido)phenyl)imidazo[1,2-b]pyridazin-2-yl)acetamide] | 456 | – | 62
CC(=O)Nc1cn2nc(-c3cccc(NS(=O)(=O)c4ccc(C)cc4)c3)ccc2n1 [Example 1, N-(6-(3-(4-Methylphenylsulfonamido)phenyl)imidazo[1,2-b]pyridazin-2-yl)acetamide] | 214 | – | 55
CC(=O)Nc1cn2cc(-c3cncc(NS(=O)(=O)C4CC4)c3)ccc2n1 [Example 16, N-(6-(5-(Cyclopropanesulfonamido)pyridin-3-yl)H-imidazo[1,2-a]pyridin-2-yl)acetamide] | 14400 | – | 19
Nc1nc2ccc(-c3cnc(Cl)c(NS(=O)(=O)c4ccc(F)cc4)c3)cc2n1-c1ccccn1 [Example 31, N-(5-(2-Amino-1-(pyridin-2-yl)-1H-benzo[d]imidazol-6-yl)-2-chloropyridin-3-yl)-4-fluorobenzenesulfonamide] | 868 | – | 8
CC(=O)Nc1cn2nc(-c3cnc(Cl)c(NS(=O)(=O)c4ccc(C)cc4)c3)ccc2n1 [Example 42, N-(6-(6-Chloro-5-(4-methylphenylsulfonamido)pyridin-3-yl)imidazo[1,2-b]pyriadazin-2-yl)acetamide] | – | 5 | 6

The remaining compounds from weak to strong by IC50 (PI3Kα), led by results:

IC50 [1] [nM] | IC50 [2] [nM] | IC50 (PI3Kα) [nM] | Structure (SMILES)
– | 523 | 691 | CC(=O)Nc1cn2nc(-c3cc(NS(=O)(=O)c4ccc(F)cc4)c(Cl)nn3)ccc2n1 [Example 52, N-(6-(6-Chloro-5-(4-fluorophenylsulfonamido)pyridazin-3-yl)imidazo[1,2-b]pyridazin-2-yl)acetamide]
– | 3500 | 154 | CS(=O)(=O)Nc1cc(-c2ccc3nc(N)c(-c4ccncc4)n3n2)cnc1Cl [Example 27, N-(5-(2-Amino-3-(pyridin-4-yl)imidazo[1,2-b]pyridazin-6-yl)-2-chloropyridin-3-yl)methanesulfonamide]
847 | – | 146 | COc1ccc(S(=O)(=O)N(C)c2nccc(-c3ccc4nc(NC(C)=O)cn4c3)n2)cc1 [Example 13, N-(6-(2-(4-Methoxy-N-methylphenylsulfonamido)pyrimidin-4-yl)H-imidazo[1,2-a]pyridin-2-yl)acetamide]
869 | – | 104 | CC(=O)Nc1cn2nc(-c3cncc(S(C)(=O)=O)c3)ccc2n1 [Example 10, N-(6-(5-(Methylsulfonyl)pyridin-3-yl)imidazo[1,2-b]pyridazin-2-yl)acetamide]
462 | – | 98 | CC(=O)Nc1cn2nc(-c3cccc(N(C)S(=O)(=O)c4ccc(C)cc4)c3)ccc2n1 [Example 2, N-(6-(3-(N,4-Dimethylphenylsulfonamido)phenyl)imidazo[1,2-b]pyridazin-2-yl)acetamide]
1140 | – | 77 | CC(=O)Nc1cn2nc(-c3ccnc(Sc4ccccc4F)c3)ccc2n1 [Example 4, N-(6-(2-(2-Fluorophenylthio)pyridin-4-yl)imidazo[1,2-b]pyridazin-2-yl)acetamide]
1200 | – | 60 | CSc1cncc(-c2ccc3nc(NC(C)=O)cn3n2)c1 [Example 8, N-(6-(5-(Methylthio)pyridin-3-yl)imidazo[1,2-b]pyridazin-2-yl)acetamide]
2720 | – | 49 | CC(=O)Nc1nc2ccc(-c3cnc(Cl)c(NS(=O)(=O)c4ccc(F)cc4)c3)cc2n1-c1ccccn1 [Example 32, N-(6-(6-Chloro-5-(4-fluorophenylsulfonamido)pyridin-3-yl)-1-(pyridin-2-yl)-1H-benzo[d]imidazol-2-yl)acetamide]
29300 | – | 37 | CC(=O)Nc1cn2cc(-c3cncc(NS(C)(=O)=O)c3)ccc2n1 [Example 17, N-(6-(5-(Methylsulfonamido)pyridin-3-yl)H-imidazo[1,2-a]pyridin-2-yl)acetamide]
975 | – | 10 | CC(=O)Nc1cn2cc(-c3cncc(NS(=O)(=O)c4ccc(F)cc4)c3)ccc2n1 [Example 15, N-(6-(5-(4-Fluorophenylsulfonamido)pyridin-3-yl)H-imidazo[1,2-a]pyridin-2-yl)acetamide]
– | 6530 | 9 | CC(=O)Nc1nc2ccc(-c3cnc(Cl)c(NS(C)(=O)=O)c3)nn2c1-c1ccncc1 [Example 26, N-(6-(6-Chloro-5-(methylsulfonamido)pyridin-3-yl)-3-(pyridin-4-yl)imidazo[1,2-b]pyridazin-2-yl)acetamide]
213 | – | 6 | CC(=O)Nc1cn2nc(-c3cncc(NS(=O)(=O)c4ccc(F)cc4)c3)ccc2n1 [Example 11, N-(6-(5-(4-Fluorophenylsulfonamido)pyridin-3-yl)imidazo[1,2-b]pyridazin-2-yl)acetamide]

Source: patent US7820665B2, “Imidazopyridazine inhibitors of PI3 kinase for cancer treatment” (Amgen Inc., priority 2007, dated 2010)
